We go through 14 compounds from patent publication US5795885A, “Method of inhibiting profileration of cells by administering an aminosterol compound” (priority 1995, dated 1998).

Test [1] relates to stage 59-60 Xenopus tadpoles.
Test [2] relates to chick embryo vitelline capillaries. The experiment in a line: chick embryo vitelline capillary regression assay. Details: key to vitelline capillary regression: +: Vascular reactivity; 0: No vascular reactivity; +/-: Equivocal reactivity. To be noted: for vitelline capillary regression: 60 minutes. It counts as in vivo. Here is the method:
Using the chick embryo vitelline capillaries assay, compounds were tested for their ability to induce capillary regression. Each compound was applied in 0.1 ml of 15% Ficol 400 and PBS onto the embryo, and vascular regression was assessed after 60 minutes.
The 3-day chick embryo consists of an embryonic disc from which numerous vessels emerge and return, forming a "figure 8"-shaped structure--the embryo in the center with vascular loops extending outward over both poles. […] Following a lag period of around 15 minutes, the constriction of continuity between capillary and secondary vessels, generally on the "venous" side, was observed. Continued pulsatile blood flow progressed, resulting in a "swelling" of the blind tube, followed by a pinching off of the remaining connection and formation of an enclosed vascular sac resembling a "blood island." This process progressed until only the largest vessels remained intact.

Molecules are shown by their SMILES.

Turning to `COC(=O)CC[C@@H](C)[C@H]1CC[C@H]2[C@@H]3C[C@@H](O)[C@H]4C[C@@H](NCCCNCCCCNCCCN)CC[C@]4(C)[C@H]3CC[C@]12C` [Compound 466], the “tadpole response similar to FX 3” value in test [1] (tadpole assay) was “exhibiting pharmacologic activity similar to that seen for FX 3”.

Turning to `COC(=O)CC[C@@H](C)[C@H]1CC[C@H]2[C@@H]3CC[C@@H]4C[C@H](NCCN)CC[C@]4(C)[C@H]3C[C@H](O)[C@]12C` [Compound 416], the “tadpole response similar to compound 1437” value in test [1] (tadpole assay) is given as “functionally similar to compound 1437”.

Turning to `COC(=O)CC[C@@H](C)[C@H]1CC[C@H]2[C@@H]3C[C@@H](O)[C@H]4C[C@H](NCCCNCCCCNCCCN)CC[C@]4(C)[C@H]3CC[C@]12C` [Compound 465], the “tadpole response similar to FX 3” value in test [1] (tadpole assay) is listed as “exhibiting pharmacologic activity similar to that seen for FX 3”.

For the compound `CC(C)C(CCC(C)C1CCC2C3C(O)CC4CC(NCCCNCCCCNCCCN)CCC4(C)C3CCC12C)OS(=O)(=O)O` (centres unmarked), in test [1] (10 μg/mL), the “Tadpole: E (epithelial)” value was “±”, the “Tadpole: M (melanocytes)” value is recorded as “+”, the “Tadpole: Mus (muscle)” value is on record as “-” and the “Tadpole: V (vascular)” value is recorded as “+”.

`CC(C)C(CCC(C)C1CCC2C3C(O)CC4CC(NCCCNCCCCN)CCC4(C)C3CCC12C)OS(=O)(=O)O` (centres unmarked): in test [1] (10 μg/mL), the “Tadpole: GI (gastrointestinal)” value is “-”, the “Tadpole: M (melanocytes)” value is reported as “-”, the “Tadpole: Mus (muscle)” value was “-” and the “Tadpole: V (vascular)” value was “+”.

With `C[C@H](CCC(=O)O)[C@H]1CC[C@H]2[C@@H]3CC[C@H]4C[C@H](NCCCNCCCCN)CC[C@]4(C)[C@H]3CC[C@]12C` [Compound 318], the vitelline capillary regression in test [2] (1 μg applied) is 0.

`C[C@H](CCC(=O)O)[C@H]1CC[C@H]2[C@@H]3[C@H](O)C[C@H]4C[C@H](NCCCNCCCCN)CC[C@]4(C)[C@H]3CC[C@]12C` [Compound 382]: the vitelline capillary regression in test [2] (0.001 μg applied) was 0; in test [2] (0.01 μg applied) it was 0; in test [2] (0.1 μg applied), 0; in test [2] (1 μg applied), “+”; in test [2] (10 μg applied) it was “+”.

Consider `C[C@H](CCC(=O)O)[C@H]1CC[C@H]2[C@@H]3[C@H](O)C[C@H]4C[C@@H](NCCCNCCCCN)CC[C@]4(C)[C@H]3CC[C@]12C` [Compound 381], for which the vitelline capillary regression in test [2] (1 μg applied) amounted to 0.

Regarding `CC(C)CCC[C@@H](C)[C@H]1CC[C@H]2[C@@H]3CC[C@H]4C[C@@H](NCCCNCCCCN)CC[C@]4(C)[C@H]3CC[C@]12C` [Compound 303], the vitelline capillary regression in test [2] (1 μg applied) is given as 0.

For the compound `COC(=O)CC[C@@H](C)[C@H]1CC[C@H]2[C@@H]3CC[C@H]4C[C@@H](NCCCNCCCCNCCCN)CC[C@]4(C)[C@H]3CC[C@]12C` [Compound 459], the “tadpole response similar to FX 3” value in test [1] (tadpole assay) was “exhibiting pharmacologic activity similar to that seen for FX 3”.

Regarding `CC(C)CCC[C@@H](C)[C@H]1CC[C@H]2[C@@H]3[C@H](O)C[C@H]4C[C@H](NCCCNCCCCN)CC[C@]4(C)[C@H]3CC[C@]12C` [Compound 370], in test [1] (tadpole assay), the “tadpole response similar to FX 3” value is “exhibiting pharmacologic activity similar to that seen for FX 3”.

As for `CC(C)CCC[C@@H](C)[C@H]1CC[C@H]2[C@@H]3[C@H](O)C[C@H]4C[C@@H](N)CC[C@]4(C)[C@H]3CC[C@]12C` [Compound 1364], the vitelline capillary regression is recorded as 0 in test [2] (0.001 μg applied); 0 in test [2] (0.01 μg applied); 0 in test [2] (0.1 μg applied); “+” in test [2] (1 μg applied); “+” in test [2] (10 μg applied).

Regarding `C[C@H](CCC(=O)O)[C@H]1CC[C@H]2[C@@H]3[C@H](O)C[C@@H]4C[C@@H](NCCN)CC[C@]4(C)[C@H]3CC[C@]12C` [Compound 415], the vitelline capillary regression in test [2] (0.001 μg applied) is recorded as 0; in test [2] (0.01 μg applied) it was “+”; in test [2] (0.1 μg applied), “+”; in test [2] (1 μg applied), “+”. The “activity in vitelline capillary regression assay (in words)” value in test [2] (in vivo) was “especially active”.

For the compound `COC(=O)CC[C@@H](C)[C@H]1CC[C@H]2[C@@H]3[C@H](O)C[C@H]4C[C@@H](NCCCNCCCCNCCCN)CC[C@]4(C)[C@H]3CC[C@]12C` [Compound 396], the vitelline capillary regression entry in test [2] (1 μg applied) is reported as “+”.
